Assay results from patent US20230053540A1, “TREATMENT OF LIVER INJURY” (Massachusetts Institute of Technology, priority 2019, published 2023).

Test system: hepatocytes
Test: Seq-Well scRNA-Seq of hepatocytes after APAP overdose (signature scores, DEG vs untreated)
Assay type: in vivo, mouse
[1] = A48 (48 h post-APAP) vs other clusters, Wilcox

CC(=O)Nc1ccc(O)cc1 [APAP, acetaminophen]
avg_logFC Ssr3 (A24 vs untreated (UT)): 0.5218
avg_logFC Stard4 (A24 vs untreated (UT)): 0.3515
avg_logFC Steap4 (A24 vs untreated (UT)): 0.476
avg_logFC Tmed7 (A24 vs untreated (UT)): 0.3868
avg_logFC Tmem30a (A24 vs untreated (UT)): 0.3328
avg_logFC Tmem205 (A24 vs untreated (UT)): −0.4721
avg_logFC Tram1 (A24 vs untreated (UT)): 0.4111
avg_logFC Trp53inp1 (A24 vs untreated (UT)): 0.368
avg_logFC Ubc (A24 vs untreated (UT)): −0.3705
avg_logFC Ugt2a3 (A24 vs untreated (UT)): −0.3334
avg_logFC Ugt2b1 (A24 vs untreated (UT)): −0.2895
avg_logFC Ugt2b5 (A24 vs untreated (UT)): −0.5765
avg_logFC Ugt2b36 (A24 vs untreated (UT)): −0.3293
avg_logFC Uqcrq (A24 vs untreated (UT)): −0.5959
avg_logFC Uso1 (A24 vs untreated (UT)): 0.3881
avg_logFC Usp4 (A24 vs untreated (UT)): 0.3247
avg_logFC Usp9x (A24 vs untreated (UT)): 0.4076
avg_logFC Zfp683 (A24 vs untreated (UT)): −0.4214
avg_logFC mmu-mir-6236 (A24 vs untreated (UT)): 0.7875
avg_logFC mt-Atp6 (A24 vs untreated (UT)): −0.5737
avg_logFC mt-Co1 (A24 vs untreated (UT)): −1.433
avg_logFC mt-Co2 (A24 vs untreated (UT)): −1.397
avg_logFC mt-Co3 (A24 vs untreated (UT)): −1.167
avg_logFC mt-Cytb (A24 vs untreated (UT)): −1.571
avg_logFC mt-Nd1 (A24 vs untreated (UT)): −1.42
avg_logFC mt-Nd2 (A24 vs untreated (UT)): −1.242
avg_logFC mt-Nd4 (A24 vs untreated (UT)): −1.957
avg_logFC mt-Nd5 (A24 vs untreated (UT)): −1.384
avg_logFC mt-Nd6 (A24 vs untreated (UT)): −0.4779
avg_logFC mt-Rnr1 (A24 vs untreated (UT)): −0.4562
avg_logFC mt-Rnr2 (A24 vs untreated (UT)): −0.7783
avg_logFC mt-Tm (A24 vs untreated (UT)): 0.2847
avg_logFC mt-Tq (A24 vs untreated (UT)): 0.2879
avg_logFC n-R5-8s1 (A24 vs untreated (UT)): 1.253
avg_logFC Abcb4 [1]: 0.4425
avg_logFC Abcd2 [1]: 0.2813
avg_logFC Abhd14b [1]: 0.4059
avg_logFC Acad11 [1]: 0.3851
avg_logFC Agt [1]: 0.5795
avg_logFC Ahcy [1]: 0.34
avg_logFC Ahsg [1]: 0.3592
avg_logFC Aldh9a1 [1]: 0.3826
avg_logFC Aldob [1]: 0.4375
avg_logFC Ambp [1]: 0.286
avg_logFC Amy1 [1]: 0.4216
avg_logFC Angptl3 [1]: 0.6111
avg_logFC Apoa5 [1]: 0.4484
avg_logFC Apoc2 [1]: 0.8639
avg_logFC Apoc3 [1]: 0.407
avg_logFC Apoe [1]: 0.5049
avg_logFC Apoh [1]: 0.4628
avg_logFC Atp5b [1]: 0.3281
avg_logFC Atp5h [1]: 0.5978
avg_logFC Bfar [1]: 0.308
avg_logFC Bnip3 [1]: 0.462
avg_logFC Cdo1 [1]: 0.3971
avg_logFC Cebpb [1]: 0.3684
avg_logFC Ces1b [1]: 0.4829
avg_logFC Ces1c [1]: 0.5488
avg_logFC Chchd10 [1]: 0.7517
avg_logFC Cox5a [1]: 0.4197
avg_logFC Cox8a [1]: 0.552
avg_logFC Cp [1]: 0.4274
avg_logFC Cyp4a10 [1]: 0.9326
avg_logFC Cyp4a14 [1]: 1.281
avg_logFC Dbp [1]: 0.2896
avg_logFC Ddb1 [1]: 0.3544
avg_logFC Decr1 [1]: 0.5669
avg_logFC Decr2 [1]: 0.4129
avg_logFC Ech1 [1]: 0.418
avg_logFC Echs1 [1]: 0.4649
avg_logFC Ephx2 [1]: 0.3869
avg_logFC F2 [1]: 0.3952
avg_logFC F10 [1]: 0.3927
avg_logFC F12 [1]: 0.388
avg_logFC Fah [1]: 0.3913
avg_logFC Fcgrt [1]: 0.4084
avg_logFC Fkbp5 [1]: 0.2572
avg_logFC Fth1 [1]: 0.375
avg_logFC Gabarap [1]: 0.4014
avg_logFC Gc [1]: 0.2979
avg_logFC Gltscr2 [1]: 0.3432
avg_logFC Gm6484 [1]: 0.4108
avg_logFC Gm23935 [1]: 0.4738
avg_logFC Grn [1]: 0.431
avg_logFC Gstt3 [1]: 0.3384
avg_logFC Gys2 [1]: 0.4231
avg_logFC Hdac11 [1]: 0.3557
avg_logFC Herpud1 [1]: 0.6044
avg_logFC Hmgcl [1]: 0.5501
avg_logFC Hmgcs2 [1]: 0.7687
avg_logFC Hpx [1]: 0.3851
avg_logFC Hrg [1]: 0.5316
avg_logFC Hsd17b13 [1]: 0.6221
avg_logFC Hspa8 [1]: 0.4107
avg_logFC Khk [1]: 0.5202
avg_logFC Lcat [1]: 0.5053
avg_logFC Lims2 [1]: 0.3761
avg_logFC Lpin1 [1]: 0.515
avg_logFC Mat1a [1]: 0.7753
avg_logFC Mfsd2a [1]: 0.6614
